What is called MIC is the lowest concentration found to suppress growth. Low values mean greater potency, high ones weaker potency.

The nature of this test: Antifungal activity against Candida albicans clinical isolate by serial twofold dilution microtitre plate method. It is filed as functional.

Converted amounts (≈) assume the structure as drawn.

For `COc1ccc2oc(=O)sc2c1C(=O)/C=C/c1ccc(OCCCN(C)C)cc1`, the minimum inhibitory concentration (MIC) came to 1 µg/mL (≈ 2.42 µM).

(Values after ChEMBL document CHEMBL3853266, “A complex game of hide and seek: the search for new antifungals” (Medchemcomm, 2016).)
